Measured values: patent EP2714063B1, “VEGFR2/3-ACTIVATING AGENT FOR USE IN THE TREATMENT OF COGNITIVE DYSFUNCTIONS” (priority 2011, dated 2012)

How the values were obtained:
[1] = test system: VEGFD; assay type: cell-based, C57BL/6 mice; details: treatment from DIV5 to DIV10; 1 µM TTX, 10 µM MK801, 10 µM nifedipine
Description: RNA extraction and cDNA synthesis. Total RNA was isolated at DIV10 to DIV13 from hippocampal primary neuron cultures or isolated brain tissues with Rneasy Mini Kit (Qiagen, Hilden, Germany) including an optional Dnase I treatment at room temperature for 15 min according to manufacturer's instructions (Qiagen). 1.2 µg of extracted RNA was reverse transcribed into first strand cDNA using High Capacity cDNA Reverse Transcription kit (Applied Biosystems, Foster City, CA).
Real time quantitative PCR. Quantitative reverse transcriptase PCR (qRT-PCR) was done on an ABI7300 thermal cycler using Universal qRT-PCR master mix with TaqMan Gene Expression Assays for the indicated genes (Applied Biosystems). The following TaqMan Gene Expression Assays were used in this study: Gusb (Mm00446953_m1), cFos (Mm00487425_m1), VEGFD (Mm00438965_m1), VEGFC (Mm01202432_m1), VEGF (Mm01281449_m1), VEGFR3 (Mm01292618_m1), beta-actin (Mm00607939_s1), beta-2 microglobulin (Mm00437762_m1), CBP (Mm01342435_m1), p38 MAPK alpha (Mm00442497_m1), p38 MAPK beta (Mm00440955_m1). Expression of target genes was normalized against the expression of Gusb as endogenous control gene. Data were derived from at least 5 independent experiments.

[2] = test system: hippocampal neurons; assay: Morphometric analyses (total dendritic length, Sholl analysis, spine density) of cultured neurons; assay type: cell-based, C57BL/6 mice
Description: Hippocampal cultures and transfection. Hippocampal neurons from newborn C57BL/6 mice were cultured as known in the art. Experiments were done after a culturing period of 10 to 14 days in vitro (DIV). DNA transfection was done on DIV8 using Lipofectamine 2000 (Invitrogen, San Diego, CA). For the studies on dendrite morphology, neurons were analyzed 4-5 days after transfection.
Morphometric analyses. For 3D Sholl Analysis, total dendritic length and spine morphology were calculated using Object-Image freeware software with a specific set of macros (written by Dr. E. Ruthazer, McGill University, Quebec). Briefly, a z-Stack acquisition was imported, calibrated in Object-Image and manually traced. Total dendritic length was then computed. For Sholl analysis, the shell interval was set at 5 µm. All analyses were performed blind. In all in vitro experiments, for each condition, a minimum of 12 neurons from three independent preparations was analyzed. For the Golgi staining quantifications of 20 neurons for each condition from 4 different injected animals per viral construct were traced and analyzed.
Immunocytochemistry. […] For the morphometric analyses, fluorescence images were acquired using a confocal laser-scanning microscope TCS SP2 (Leica, Mannheim, Germany) equipped with an inverted fluorescence microscope DM IRE2 (Leica) and Leica confocal scan software. […]

| SMILES | VEGFD expression (mRNA) [1] | effect on the rVEGFD-induced rescue of dendrite length and complexity ([2]; neurons expressing CaMBP4 (and CaMKIVK75E), treated for 3 days with rVEGFD) | Sholl analysis ([2]; neurons expressing hrGFP, CaMBP4 or CaMKIVK75E, SB203580 without rVEGFD) |
| --- | --- | --- | --- |
| C[C@]12N[C@H](Cc3ccccc31)c1ccccc12 [MK801] | significantly reduced the expression of VEGFD mRNA | – | – |
| C[S+]([O-])c1ccc(-c2nc(-c3ccncc3)c(-c3ccc(F)cc3)[nH]2)cc1 (stereo not drawn) [SB203580] | – | severely compromised the ability of rVEGFD to rescue the impairment of dendrite length and complexity | no difference compared to the respective untreated controls |
